From patent publication EP0353754A2, “Radioactively marked benzodiazepin derivates” (F. HOFFMANN-LA ROCHE AG, priority 1988, dated 1990)
Read-outs that look alike come from different tables or passages of the source.

Experiment: Organ distribution of injected radioactivity in rats after I.V. injection
Format: in vivo, Ratten (weiblich, Wistar, spf)
Details: Ratte; for tissue uptake at 2 min / tissue uptake at 10 min / tissue uptake at 20 min / tissue uptake at 40 min / tissue uptake at 1 h / tissue uptake at 6 h / tissue uptake at 15 h: rat, iv, read-out: Prozent der injizierten Aktivität pro Gramm des entsprechenden Organs; for tissue uptake at 1 h: 60′
Protocol: Es werden je 3 Ratten (weiblich, Wistar, spf) zu sieben verschiedenen Zeitpunkten (2′, 10′, 20′, 40′, 1h, 6h, 15h) gemessen. Das Gewicht der Tiere lag zwischen 113 und 144 g. Die Fütterung erfolgte ad libitum. Die I.V. injizierten Dosen variierten von 184 bis 355 µCi in jeweils 0,2 ml.

Question: What does the source list for `CCOC(=O)c1ncn2c1CN(C)C(=O)c1c([123I])cccc1-2` [Aethyl-7-¹²³Jod-5,6-dihydro-5-methyl-6-oxo-4H-imidazo[1,5-a][1,4]benzodiazepin-3-carboxylat]?
Answer: Prozent der injizierten Aktivität in den entsprechend Organen (Totalkörper, 15h): 2,80 Prozent der injizierten Aktivität; tissue uptake at 2 min (bladder, Blase): 0.59 %ID/g; tissue uptake at 10 min (bladder, Blase): 1.07 %ID/g; tissue uptake at 20 min (bladder, Blase): 0.69 %ID/g; tissue uptake at 40 min (bladder, Blase): 0.24 %ID/g; tissue uptake at 1 h (bladder, Blase): 0.42 %ID/g; tissue uptake at 6 h (bladder, Blase): 0.57 %ID/g; tissue uptake at 15 h (bladder, Blase, 15h): 0.023 %ID/g; tissue uptake at 2 min (blood, Blut): 0.7 %ID/g; tissue uptake at 10 min (blood, Blut): 0.87 %ID/g; tissue uptake at 20 min (blood, Blut): 0.46 %ID/g; tissue uptake at 40 min (blood, Blut): 0.17 %ID/g; tissue uptake at 1 h (blood, Blut): 0.11 %ID/g; tissue uptake at 6 h (blood, Blut): 0.04 %ID/g; tissue uptake at 15 h (blood, Blut, 15h): 0.013 %ID/g; tissue uptake at 2 min (brain, Hirn): 2.12 %ID/g; tissue uptake at 10 min (brain, Hirn): 3.22 %ID/g; tissue uptake at 20 min (brain, Hirn): 2.99 %ID/g; tissue uptake at 40 min (brain, Hirn): 2.7 %ID/g; tissue uptake at 1 h (brain, Hirn): 1.8 %ID/g; tissue uptake at 6 h (brain, Hirn): 0.05 %ID/g; tissue uptake at 15 h (brain, Hirn, 15h): 0.001 %ID/g; tissue uptake at 2 min (heart, Herz): 0.86 %ID/g; tissue uptake at 10 min (heart, Herz): 0.66 %ID/g; tissue uptake at 20 min (heart, Herz): 0.3 %ID/g; tissue uptake at 40 min (heart, Herz): 0.1 %ID/g; tissue uptake at 1 h (heart, Herz): 0.06 %ID/g; tissue uptake at 6 h (heart, Herz): 0.02 %ID/g; tissue uptake at 15 h (heart, Herz, 15h): 0.007 %ID/g; tissue uptake at 2 min (intestine, Darm): 0.75 %ID/g; tissue uptake at 10 min (intestine, Darm): 1.1 %ID/g; tissue uptake at 20 min (intestine, Darm): 1.73 %ID/g; tissue uptake at 40 min (intestine, Darm): 2.02 %ID/g; tissue uptake at 1 h (intestine, Darm): 1.97 %ID/g; tissue uptake at 6 h (intestine, Darm): 1.55 %ID/g; tissue uptake at 15 h (intestine, Darm, 15h): 0.143 %ID/g; tissue uptake at 2 min (Femur): 0.54 %ID/g; tissue uptake at 10 min (Femur): 0.45 %ID/g; tissue uptake at 20 min (Femur): 0.24 %ID/g; tissue uptake at 40 min (Femur): 0.1 %ID/g; tissue uptake at 1 h (Femur): 0.07 %ID/g; tissue uptake at 6 h (Femur): 0.02 %ID/g; tissue uptake at 15 h (Femur, 15h): 0.007 %ID/g; tissue uptake at 2 min (kidney, Nieren): 2.68 %ID/g; tissue uptake at 10 min (kidney, Nieren): 7.06 %ID/g; tissue uptake at 20 min (kidney, Nieren): 5.26 %ID/g; tissue uptake at 40 min (kidney, Nieren): 1.35 %ID/g; tissue uptake at 1 h (kidney, Nieren): 0.68 %ID/g; tissue uptake at 6 h (kidney, Nieren): 0.03 %ID/g; tissue uptake at 15 h (kidney, Nieren, 15h): 0.01 %ID/g; tissue uptake at 2 min (liver, Leber): 2.38 %ID/g; tissue uptake at 10 min (liver, Leber): 5.66 %ID/g; tissue uptake at 20 min (liver, Leber): 2.62 %ID/g; tissue uptake at 40 min (liver, Leber): 0.58 %ID/g; tissue uptake at 1 h (liver, Leber): 0.19 %ID/g; tissue uptake at 6 h (liver, Leber): 0.02 %ID/g; tissue uptake at 15 h (liver, Leber, 15h): 0.016 %ID/g; tissue uptake at 2 min (lung, Lunge): 1.22 %ID/g; tissue uptake at 10 min (lung, Lunge): 0.87 %ID/g; tissue uptake at 20 min (lung, Lunge): 0.44 %ID/g; tissue uptake at 40 min (lung, Lunge): 0.15 %ID/g; tissue uptake at 1 h (lung, Lunge): 0.1 %ID/g; tissue uptake at 6 h (lung, Lunge): 0.03 %ID/g; tissue uptake at 15 h (lung, Lunge, 15h): 0.011 %ID/g; tissue uptake at 2 min (muscle, Muskel): 0.68 %ID/g; tissue uptake at 10 min (muscle, Muskel): 0.42 %ID/g; tissue uptake at 20 min (muscle, Muskel): 0.2 %ID/g; tissue uptake at 40 min (muscle, Muskel): 0.09 %ID/g; tissue uptake at 1 h (muscle, Muskel): 0.04 %ID/g; tissue uptake at 6 h (muscle, Muskel): 0.01 %ID/g; tissue uptake at 15 h (muscle, Muskel, 15h): 0.003 %ID/g; tissue uptake at 2 min (ovary, Ovar): 0.88 %ID/g; tissue uptake at 10 min (ovary, Ovar): 0.73 %ID/g; tissue uptake at 20 min (ovary, Ovar): 0.53 %ID/g; tissue uptake at 40 min (ovary, Ovar): 0.22 %ID/g; tissue uptake at 1 h (ovary, Ovar): 0.16 %ID/g; tissue uptake at 6 h (ovary, Ovar): 0.03 %ID/g; tissue uptake at 15 h (ovary, Ovar, 15h): 0.011 %ID/g; tissue uptake at 2 min (spleen, Milz): 0.6 %ID/g; tissue uptake at 10 min (spleen, Milz): 0.53 %ID/g; tissue uptake at 20 min (spleen, Milz): 0.29 %ID/g; tissue uptake at 40 min (spleen, Milz): 0.14 %ID/g; tissue uptake at 1 h (spleen, Milz): 0.07 %ID/g; tissue uptake at 6 h (spleen, Milz): 0.02 %ID/g; tissue uptake at 15 h (spleen, Milz, 15h): 0.01 %ID/g; tissue uptake at 2 min (stomach, Magen): 0.19 %ID/g; tissue uptake at 10 min (stomach, Magen): 0.41 %ID/g; tissue uptake at 20 min (stomach, Magen): 0.35 %ID/g; tissue uptake at 40 min (stomach, Magen): 0.27 %ID/g; tissue uptake at 1 h (stomach, Magen): 0.48 %ID/g; tissue uptake at 6 h (stomach, Magen): 0.73 %ID/g; tissue uptake at 15 h (stomach, Magen, 15h): 0.08 %ID/g; tissue uptake at 2 min (thyroid, Schilddrüse): 0.6 %ID/g; tissue uptake at 10 min (thyroid, Schilddrüse): 0.54 %ID/g; tissue uptake at 20 min (thyroid, Schilddrüse): 1.22 %ID/g; tissue uptake at 40 min (thyroid, Schilddrüse): 0.08 %ID/g; tissue uptake at 1 h (thyroid, Schilddrüse): 0.06 %ID/g; tissue uptake at 6 h (thyroid, Schilddrüse): 0.03 %ID/g; tissue uptake at 15 h (thyroid, Schilddrüse, 15h): 0.007 %ID/g
